Laboratory results as given in ChEMBL document CHEMBL5096192, “Recent advancements in anti-leishmanial research: Synthetic strategies and structural activity relationships” (Eur J Med Chem, 2021).
≈ marks a conversion by molar mass, not a printed value.

Columns and labels:
[1] = system: Leishmania amazonensis; test: Antileishmanial activity against promastigote form of Leishmania amazonensis IFLA/BR/1967/PH8 assessed as parasite growth inhibition incubated for 72 hrs by MTT assay; type: functional, organism-based; settings: IFLA/BR/1967/PH8, 72 h
[2] = system: Leishmania braziliensis; test: Antileishmanial activity against promastigote form of Leishmania braziliensis MHOM/BR/75/M2904 promastigotes assessed as parasite growth inhibition incubated for 48 hrs by resazurin assay; type: functional, organism-based; settings: MHOM/BR/75/M2904, 48 h
[3] = system: Leishmania amazonensis; test: Antileishmanial activity against promastigote form of Leishmania amazonensis (MHOM/BR/71973/M2269) assessed as parasite growth inhibition by MTT assay; type: functional, organism-based
[4] = system: Leishmania amazonensis; test: Antileishmanial activity against amastigote form of Leishmania amazonensis (MHOM/BR/71973/M2269) assessed as parasite growth inhibition by MTT assay; type: functional, organism-based
[5] = system: Leishmania infantum; test: Antileishmanial activity against Leishmania infantum MHOM/MA/67/ITMAP263 intracellular amastigotes infected in primary peritoneal mouse macrophages assessed as inhibition of parasite growth by cell based assay; type: functional, organism-based; settings: MHOM/MA/67/ITMAP263, Peritoneal macrophage
[6] = system: Trypanosoma cruzi; test: Antitrypanosomal activity against Trypanosoma cruzi Tulahuen intracellular amastigotes transfected with beta-galactosidase infected in human U-937 cells assessed as viability of intracellular amastigotes measured after 72 hrs by spectrophotometry; type: functional, organism-based; settings: U-937, 72 h
[7] = system: Leishmania panamensis; test: Antileishmanial activity against Leishmania panamensis MHOM/CO/87/UA140pIR-GFP intracellular amastigotes infected in human U-937 cells assessed as parasite growth inhibition measured after 72 hrs by flow cytometry analysis; type: functional, organism-based; settings: U-937, 72 h
[8] = system: Leishmania mexicana; test: Antileishmanial activity against promastigote form of Leishmania mexicana assessed as inhibition of parasite growth measured for 10 days by Neubauer counting chamber based analysis; type: functional, organism-based; settings: 240 h
[9] = system: Leishmania mexicana; test: Inhibition of recombinant Leishmania mexicana CPB2.8 delta CTE at 20 uM
[10] = system: Leishmania donovani; test: Antileishmanial activity against promastigote form of Leishmania donovani assessed as inhibition of promastigote growth incubated for 48 hrs by Alamar blue assay; type: functional, organism-based
[11] = Selectivity index, ratio of CC50 for cytotoxicity against human THP1 cells to IC50 for antileishmanial activity against promastigote form of Leishmania donovani; type: toxicity, cell-based; settings: read-out: Ratio CC50/IC50
[12] = system: Leishmania donovani; test: Antileishmanial activity against promastigote form of wild-type Leishmania donovani MHOM/80/IN/Dd8 assessed as inhibition of parasite growth incubated for 48 hrs by MTT assay; type: functional, organism-based; settings: MHOM/80/IN/Dd8, 48 h
[13] = system: U-937; test: Cytotoxicity against human U-937 cells assessed as reduction in cell viability measured after 72 hrs by MTT assay; type: functional; settings: read-out: LC50 (the source's name)
[14] = system: Leishmania panamensis; test: Antileishmanial activity against Leishmania panamensis MHOM/CO/87/UA140-EGFP intracellular amastigotes infected in U-937 cells assessed as parasite growth inhibition measured after 72 hrs by flow cytometry analysis; type: functional, organism-based; settings: U-937, 72 h
[15] = system: Leishmania donovani; test: Antileishmanial activity against Leishmania donovani MHOM/IN/83/AG83 intracellular amastigotes infected in mouse RAW264.7 cells assessed as parasite growth inhibition incubated for 48 hrs by Giemsa staining based microscopic analysis; type: functional, organism-based; settings: MHOM/IN/83/AG83, RAW264.7, 48 h
[16] = system: Leishmania donovani; test: Antileishmanial activity against promastigote form of Leishmania donovani MHOM/IN/83/AG83 assessed as inhibition of promastigote growth incubated for 48 hrs by MTT reduction assay; type: functional, organism-based; settings: MHOM/IN/83/AG83, 48 h
[17] = system: Leishmania major; test: Antileishmanial activity against Leishmania major JISH118 promastigote infected in human THP-1 cells assessed as parasite growth inhibition measured after 48 hrs by Giemsa staining based analysis; type: functional, organism-based; settings: JISH118, THP-1, 48 h
[18] = system: Leishmania donovani; test: Antileishmanial activity against Leishmania donovani Bob intracellular amastigotes assessed as parasite growth inhibition incubated for 72 hrs by LDH assay; type: functional, organism-based
[19] = system: Leishmania amazonensis; test: Antileishmanial activity against Leishmania amazonensis (MHOM/BR/71973/M2269) intracellular amastigotes infected in mouse peritoneal macrophages assessed as parasite growth inhibition incubated for 24 hrs by Giemsa staining based light microscopy analysis; type: functional, organism-based; settings: MHOM/BR/71973/M2269, Peritoneal macrophage
[20] = system: Leishmania amazonensis; test: Antileishmanial activity against promastigote form of Leishmania amazonensis (MHOM/BR/71973/M2269) assessed as parasite growth inhibition measured after 72 hrs by Neubauer counting chamber based analysis; type: functional, organism-based; settings: MHOM/BR/71973/M2269, 72 h
[21] = system: Leishmania major; test: Antileishmanial activity against Leishmania major (MHOM/IR/-173) promastigotes assessed as inhibition of parasite growth incubated for 72 hrs by alamar blue staining based analysis; type: functional, organism-based; settings: MHOM/IR/-173, 72 h
[22] = system: Mycobacterium tuberculosis; test: Antimycobacterial activity against Mycobacterium tuberculosis H37Rv ATCC 27294 assessed as inhibition of bacterial growth and measured at 7 to 14 day by broth microdilution assay; type: functional; settings: time 7-14 day
[23] = system: Leishmania braziliensis; test: Antileishmanial activity against promastigote form of Leishmania braziliensis MHOM/CO/88/301-EGFP infected in human U-937 cells assessed as parasite growth inhibition measured after 72 hrs by flow cytometer analysis; type: functional, organism-based; settings: U-937, 72 h
[24] = system: Leishmania panamensis; test: Antileishmanial activity against promastigote form of Leishmania panamensis MHOM/CO/87/UA140-EGFP infected in human U-937 cells assessed as parasite growth inhibition measured after 72 hrs by flow cytometer analysis; type: functional, organism-based; settings: U-937, 72 h
[25] = system: Leishmania amazonensis; test: Antileishmanial activity against promastigote form of Leishmania amazonensis (MHOM/BR/75/Josefa) assessed as inhibition of parasite growth measured after 72 hrs by Neubauer counting chamber based analysis; type: functional, organism-based
[26] = system: Leishmania major; test: Antileishmanial activity against Leishmania major axenic amastigotes assessed as parasite growth inhibition by Alamar blue assay; type: functional, organism-based

`O=C(C[Se]CC(=O)Nc1ccc([N+](=O)[O-])cc1)Nc1ccc([N+](=O)[O-])cc1` showed an IC50 [1] of 5.67 µg/mL (≈ 13 µM).
With `CC(C)=CCC1=C(OC(=O)CCc2cn(-c3ccc(C)cc3)nn2)C(=O)c2ccccc2C1=O` the IC50 [2] was 15.9 µM.
`CCCc1cc(OC)c2oc(=O)c(C(=O)c3ccc([N+](=O)[O-])cc3)cc2c1` gave an IC50 [3] of 3.53 µM and an IC50 [4] of 12 µM.
Compound `COC(=O)c1ccc(NC(=O)CSc2nc3ccc(Cl)cc3n2Cc2cc(C)cc(C)c2)c(Cl)c1` has an IC50 [5] of 6.82 µM.
For `CC(CCCCCCC[n+]1ccn(C)c1)Oc1ccc(C(=O)/C=C/c2ccco2)cc1` (stereo unspecified), the EC50 [6] was 0.66 µM and the EC50 [7] was 0.78 µM.
`Fc1ccc(Nc2cnc3ccccc3c2)cc1` gave an IC50 [8] of 41.9 µM.
Compound `O=C(/C=C/c1ccco1)c1ccc(OCCCCCOc2cccc3cccnc23)cc1` has an EC50 [7] of 13.8 µM.
Compound `COC(=O)c1ccc(NC(=O)CSc2nc3ccccc3n2S(=O)(=O)c2cc(C)cc(C)c2)cc1` has an inhibition [9] of 97%.
In the case of `CC(C)CCN1C(=O)C=CC1=O`, the IC50 [10] is reported as < 0.0128 µg/mL and the selectivity ratio [11] is reported as > 781.
Work on `CN(C)CCCn1cc(/C=C/C(=O)c2ccc(Cl)cc2)c2ccccc21` yielded an IC50 [12] of 21.5 µM.
`O=C1C=C(c2ccc(C(F)(F)F)cc2)S(=O)(=O)c2ccc(F)cc21` showed a CC50 [13] of 561 µM and an EC50 [14] of 3.24 µM.
`COc1cc(-c2nnc(/C=C/c3cn(-c4ccccc4)nc3-c3ccccc3)o2)cc(OC)c1OC` showed an IC50 [15] of 44.2 µg/mL (≈ 92 µM) and an IC50 [16] of 33.3 µg/mL (≈ 69.3 µM).
With `Cc1cc(N2C(=O)C(Cl)=C(Cl)C2=O)ccc1[N+](=O)[O-]` the IC50 [10] was < 0.0128 µg/mL and the selectivity ratio [11] was > 781.
`Cn1cc[n+](CCCOc2ccc(C(=O)/C=C/c3ccco3)cc2)c1` gave an EC50 [7] of 4.65 µM.
For `Cc1cccc(Nc2nnc(-c3ccc(C(c4c[nH]c5ccccc45)c4c[nH]c5ccccc45)cc3)s2)c1`, the IC50 [17] was 0.7 µM.
In the case of `CCCCCCCCCCCCCCCCOP(=O)([O-])OCC[N+](C)(C)C` [MILTEFOSINE], the IC50 [12] is reported as 24.2 µM and the IC50 [5] is reported as 4.5 µM.
With `COC(=O)C(N)Cc1c[nH]c2ccccc12` (stereo unspecified) the IC50 [18] was 18.2 µM.
With `CC(C)COc1ccc2c(-c3ccccc3)cc(=O)oc2c1` the IC50 [19] was 58.1 µM and the IC50 [20] was 21.4 µM.
Compound `OCc1cn(-c2cc(O)ccc2O)nn1` has an IC50 [21] of 23 µM and an MIC90 [22] of 16 µM (≈ 3.32 µg/mL).
For `O=C(N/N=C1\CCOc2ccccc21)c1ccccc1`, the EC50 [23] was 12.1 µg/mL (≈ 45.4 µM) and the EC50 [24] was 20.1 µg/mL (≈ 75.5 µM).
`Cn1cc[n+](CCCCCCCCOc2ccc(C(=O)/C=C/c3ccco3)cc2)c1` showed an EC50 [7] of 8.39 µM.
For `CN(C)CCCn1cc(/C=C/C(=O)c2ccc(I)cc2)c2ccccc21`, the IC50 [12] was 24.2 µM.
Work on `O=C1C=C(c2ccc(F)cc2)S(=O)(=O)c2ccccc21` yielded a CC50 [13] of 694 µM and an EC50 [14] of 6.72 µM.
Compound `CC1=CC[C@@H](C(C)(C)NC(=S)N/N=C/c2cccc([N+](=O)[O-])c2)CC1` has an IC50 [25] of 2.4 µM.
Work on `COc1ccc(-c2nn(-c3ccccc3)cc2/C=C/C(=O)c2ccc([N+](=O)[O-])cc2)cc1` yielded an IC50 [26] of 2.3 µM.
